Measured values from patent US7417025B2, “Use of poly-α2,8-sialic acid mimetic peptides to modulate NCAM functions” (Centre National de la Recherche Scientifique, priority 2002, dated 2008).
“Also recorded” adds a separate entry of the source.

Assays:
[1] = tested on: Mouse dorsal root ganglion explants (E13.5); assay: Dorsal root ganglion explant culture: neurite outgrowth and fasciculation; type: cell-based
Experimental: E13.5 DRGs were dissected out from mice embryos in HBSS medium and seeded on glass coverslips coated with polylysine or with peptides linked to BSA. Explants were cultured in the presence or the absence of the peptides under soluble form (40 μM) in two ml of neurobasal medium (DMEM/Ham's F12, 3:1 (V/V), GIBCO, buffered with 20 mM Hepes), supplemented as described in Faivre-Sarrailh et al., J. Cell. Sci., 1999, 18, 3015-3027 and Chazal et al., J.Neurosci., 2000, 20, 1446-1457.
Fixed DRGs (Dorsal Root ganglia) explants and sections were incubated at 4° C. respectively 2 hr with an anti-neurofilament (SMI-31, dilution 1:800, STERNBERGER MONOCLONALS) and overnight with an anti-PSA antibody (dilution 1:200, Rougon et al, J. Cell. Biol., 1986, 103, 2429-2437). Revelation was performed by 1 hr incubation with the corresponding fluorescent-labeled secondary antibody (Goat anti-mouse IgM or IgG conjugated with texas red, IMMUNOTECH)
After 48 h in culture, explants were examining directly (SVZ) or after overnight fixation with a 4% paraformaldehyde solution in PBS and immunostaining (DRGs). Observation was done using 2, 5×, 5×, 10× and 32× objectives (Axiovert 35M, ZEISS). Images were collected with a video camera (Cool View, PHOTONIC SCIENCE) and analysed using image-processing software (Visiolab1000, BIOCOM). Mean migration distance (calculated on five different experiments, including at least five explants per condition) or mean length of the longest neurite (calculated on two different experiments, including at least eight explants per condition), was the distance in micrometers between the explant edge and the border of the cell migration front. Four measurements were performed for each explant. The significance of the differences between the control and the different experimental conditions was calculated by Student's t test.
Mouse dorsal root ganglion explants (E13.5) were cultured in the presence of p65 and p66 cyclic mimetic peptides, either in soluble form or coated on the microplates as BSA conjugates. Cells cultured in the absence of peptides or in the presence of reverse peptides (coated or in soluble form) were used as controls.

[2] = tested on: spinal cord dorsal hemisection; assay: Functional recovery from spinal cord injury (BBB test, rotarod test); type: in vivo, mouse
Experimental: Male Swiss-CD1 mice (8-10 week-old) were anesthetized with a mixture of ketamine and xylazine. The spinal cord had been exposed by making a midline incision of the skin, and by retracting the paravertebral muscles. A laminectomy was performed at the T7-T8 level and the spinal cord exposed. Using iridectomy scissors, a bilateral dorsal hemisection, transecting left and right dorsal finiculus, the dorsal horns, but sparing most parts of the ventral fimiculus, was performed, resulting in a complete transection of the dorsomedial main Cortico Spinal Tract (CST). For the series of mice receiving the peptides a Surgicoll pledget saturated with 10 μl of either p65 or reverse p65 (10 μM) peptides was applied over the transection site and covered with petroleum jelly to prevent diffusion. All inside muscle layer were sutured using fine thread. Skin was sutured using surgical staples. […]
Functional evaluation of the animals was performed at day (D) D1, D4, D7, D14, D21, D28, D35, during the first week following the spinal cord lesion and then on a weekly basis until D35, by two different observers blinded to group identity. Locomotor recovery was evaluated using the BBB test (Basso, Beattie and Bresnahan test; Basso et al., Restor. Neurol. Neurosci, 2002, 5, 189-218). […]

[3] = tested on: subventricular zone explants (neuronal precursors); assay: Subventricular zone (SVZ) explant culture: cell migration in vitro; type: cell-based, mouse; conditions: 0.4 μM peptide
[4] = peptide in coated form (BSA conjugate)
[5] = peptide in soluble form (40 μM), versus controls

CSSVTAWTTGCG [p65]
Fasciculation [1, 4]: opposite effect on fasciculation
Neurite outgrowth [1, 4]: no effect on neurite outgrowth; also recorded: no significant increase
Axonal growth [1, 5]: significant increase in axonal growth
Fasciculation of axon bundles [1, 5]: clear defasciculation of axon bundles
Increase of neurite outgrowth compared to the controls ([1]; peptide in soluble form, mean length of the longest neurite): 34%
Rotarod test (fine motor coordination) ([2]; D35): beneficial effect on recovery
BBB score (locomotor recovery) ([2]; versus p65-reverse controls, starting from D14 post-injury, 10 μl of 10 μM peptide at lesion): significantly higher
Increase in the rate of migration of the neuronal precursors compared with the control without peptide [3]: +40%
